*1 amine or outer side, *2 acyl side, *3 side chain or, on linkers, in order; H or OH if unused. Where a SMILES comes first, the peptide text is derived from it. Bridges are numbered along the chain shown (N, C = ends). [ ]: non-standard residue; d: D form. The star is where a group is joined. hPhe(3-Cl-4-CF3) = N[C@@H](CCc1ccc(C(F)(F)F)c(Cl)c1)C(=O)O; X35 = Cc1ccc(C[C@@H](C(=O)[*:2])N(CCC(C)(C)C)[*:1])cc1; NPrPhe(4-CF3) = CCCN[C@@H](Cc1ccc(C(F)(F)F)cc1)C(=O)O; X27 = Cc1ccc(C[C@@H](C(=O)[*:2])N(CC2CCCCC2)[*:1])cc1; X29 = Cc1ccc(C[C@@H](C(=O)[*:2])N(CC2CCCC2)[*:1])cc1; NMePhe(4-CF3) = CN[C@@H](Cc1ccc(C(F)(F)F)cc1)C(=O)O; X34 = Cc1ccc(C[C@@H](C(=O)[*:2])N(CCC(C)C)[*:1])cc1; X48 = C=CCCN([C@@H](Cc1ccc(C)cc1)C(=O)[*:2])[*:1]; NPrPhe(4-Me) = CCCN[C@@H](Cc1ccc(C)cc1)C(=O)O; NEtPhe(4-Me) = CCN[C@@H](Cc1ccc(C)cc1)C(=O)O; NMeGly(cPent) = CN[C@H](C(=O)O)C1CCCC1; Hyp = O=C(O)[C@@H]1C[C@@H](O)CN1; NMeD = CN[C@@H](CC(=O)O)C(=O)O; NMeL = CN[C@@H](CC(C)C)C(=O)O; Pip = O=C(O)[C@@H]1CCCCN1; Morpholide = C1CN(*)CCO1; NMeA = CN[C@@H](C)C(=O)O; Ac5c = NC1(C(=O)O)CCCC1; Aze = O=C(O)[C@@H]1CCN1; NEtG = CCNCC(=O)O; X45 = C1CCC(*)OC1; Sar = CNCC(=O)O
How the values were obtained:
[1] = biological target: GDP-bound NRAS wild-type protein (Homo sapiens, UniProt P01111); experiment: Binding to NRAS by surface plasmon resonance (SPR), Single Cycle Kinetics; conditions: KD ratio NRAS/KRAS, SPR
GDP-bound NRAS wild-type protein, sequence (P01111 whole entry): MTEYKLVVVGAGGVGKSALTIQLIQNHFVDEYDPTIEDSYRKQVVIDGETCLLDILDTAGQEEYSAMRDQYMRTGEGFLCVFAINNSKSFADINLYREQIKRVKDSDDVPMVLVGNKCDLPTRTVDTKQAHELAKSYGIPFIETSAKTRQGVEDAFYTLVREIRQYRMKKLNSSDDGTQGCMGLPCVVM

[2] = biological target: GDP-bound HRAS wild-type protein (Homo sapiens, UniProt P01112); experiment: Binding to HRAS by surface plasmon resonance (SPR), Single Cycle Kinetics; conditions: KD ratio HRAS/KRAS, SPR
GDP-bound HRAS wild-type protein, sequence (P01112 whole entry): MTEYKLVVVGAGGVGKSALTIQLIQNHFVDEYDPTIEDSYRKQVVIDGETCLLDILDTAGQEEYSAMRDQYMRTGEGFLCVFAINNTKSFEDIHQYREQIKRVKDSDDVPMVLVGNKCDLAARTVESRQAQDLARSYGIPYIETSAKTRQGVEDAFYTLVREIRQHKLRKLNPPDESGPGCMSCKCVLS

SMILES	NRAS/KRAS (ratio of KD for GDP-bound NRAS wild-type to KD for KRAS) [1]	HRAS/KRAS (ratio of KD for GDP-bound HRAS wild-type to KD for KRAS) [2]
CCCN1C(=O)CN(C)C(=O)CN(C)C(=O)[C@H]([C@@H](C)CC)NC(=O)[C@H](CC(C)C)N(C)C(=O)C[C@@H](C(=O)N2CCOCC2)N(C)C(=O)[C@H](C2CCCC2)N(C)C(=O)C2(CCCC2)NC(=O)[C@@H]2CCCN2C(=O)[C@H](CCc2ccc(C(F)(F)F)c(Cl)c2)NC(=O)CN(CC)C(=O)[C@@H]1Cc1ccc(C)cc1 [PP0066] ([NMeL]I[Sar][Sar][NPrPhe(4-Me)][NEtG][hPhe(3-Cl-4-CF3)]P[Ac5c][NMeGly(cPent)][NMeD]-Morpholide; lactam N-11)	B (a compound having 3 or more and less than 10 is denoted as B)	C (A compound having a KD ratio of 0.1 or more and less than 3 is denoted as C)
CC[C@H](C)[C@@H]1NC(=O)[C@H](CC(C)C)N(C)C(=O)C[C@@H](C(=O)N2CCOCC2)N(C)C(=O)[C@H](C2CCCC2)N(C)C(=O)C2(CCCC2)NC(=O)[C@@H]2C[C@@H](OC3CCCCO3)CN2C(=O)[C@H](CCc2ccc(C(F)(F)F)c(Cl)c2)NC(=O)CN(C)C(=O)[C@H](Cc2ccc(C)cc2)N(CC)C(=O)[C@@H]2CCN2C(=O)[C@H](C)N(C)C1=O (some centres unmarked) [PP0067] ([NMeL]I[NMeA][Aze][NEtPhe(4-Me)][Sar][hPhe(3-Cl-4-CF3)][Hyp](X45)[Ac5c][NMeGly(cPent)][NMeD]-Morpholide; lactam N-11)	C (A compound having a KD ratio of 0.1 or more and less than 3 is denoted as C)	C (A compound having a KD ratio of 0.1 or more and less than 3 is denoted as C)
CC[C@H](C)[C@@H]1NC(=O)[C@H](CC(C)C)N(C)C(=O)C[C@@H](C(=O)N2CCOCC2)N(C)C(=O)[C@H](C2CCCC2)N(C)C(=O)C2(CCCC2)NC(=O)[C@@H]2C[C@@H](OC3CCCCO3)CN2C(=O)[C@H](CCc2ccc(C(F)(F)F)c(Cl)c2)NC(=O)CN(C)C(=O)[C@H](Cc2ccc(C)cc2)N(CC)C(=O)CN(C)C(=O)CN(C)C1=O (some centres unmarked) [PP0068] ([NMeL]I[Sar][Sar][NEtPhe(4-Me)][Sar][hPhe(3-Cl-4-CF3)][Hyp](X45)[Ac5c][NMeGly(cPent)][NMeD]-Morpholide; lactam N-11)	C (A compound having a KD ratio of 0.1 or more and less than 3 is denoted as C)	C (A compound having a KD ratio of 0.1 or more and less than 3 is denoted as C)
CCCN1C(=O)CN(CC)C(=O)CN(C)C(=O)[C@H]([C@@H](C)CC)NC(=O)[C@H](CC(C)C)N(C)C(=O)C[C@@H](C(=O)N2CCOCC2)N(C)C(=O)[C@H](C2CCCC2)N(C)C(=O)C2(CCCC2)NC(=O)[C@@H]2CCCN2C(=O)[C@H](CCc2ccc(C(F)(F)F)c(Cl)c2)NC(=O)CN(CC)C(=O)[C@@H]1Cc1ccc(C)cc1 [PP0069] ([NMeL]I[Sar][NEtG][NPrPhe(4-Me)][NEtG][hPhe(3-Cl-4-CF3)]P[Ac5c][NMeGly(cPent)][NMeD]-Morpholide; lactam N-11)	C (A compound having a KD ratio of 0.1 or more and less than 3 is denoted as C)	C (A compound having a KD ratio of 0.1 or more and less than 3 is denoted as C)
CCCN1C(=O)[C@@H]2CCN2C(=O)[C@@H]2CCCCN2C(=O)[C@H]([C@@H](C)CC)NC(=O)[C@H](CC(C)C)N(C)C(=O)C[C@@H](C(=O)N2CCOCC2)N(C)C(=O)[C@H](C2CCCC2)N(C)C(=O)C2(CCCC2)NC(=O)[C@@H]2CCCN2C(=O)[C@H](CCc2ccc(C(F)(F)F)c(Cl)c2)NC(=O)CN(C)C(=O)[C@@H]1Cc1ccc(C)cc1 [PP0070] ([NMeL]I[Pip][Aze][NPrPhe(4-Me)][Sar][hPhe(3-Cl-4-CF3)]P[Ac5c][NMeGly(cPent)][NMeD]-Morpholide; lactam N-11)	C (A compound having a KD ratio of 0.1 or more and less than 3 is denoted as C)	B (a compound having 3 or more and less than 10 is denoted as B)
CC[C@H](C)[C@@H]1NC(=O)[C@H](CC(C)C)N(C)C(=O)C[C@@H](C(=O)N2CCOCC2)N(C)C(=O)[C@H](C2CCCC2)N(C)C(=O)C2(CCCC2)NC(=O)[C@@H]2CCCN2C(=O)[C@H](CCc2ccc(C(F)(F)F)c(Cl)c2)NC(=O)CN(C)C(=O)[C@H](Cc2ccc(C(F)(F)F)cc2)N(C)C(=O)CN(C)C(=O)CN(C)C1=O [PP0076] ([NMeL]I[Sar][Sar][NMePhe(4-CF3)][Sar][hPhe(3-Cl-4-CF3)]P[Ac5c][NMeGly(cPent)][NMeD]-Morpholide; lactam N-11)	C (A compound having a KD ratio of 0.1 or more and less than 3 is denoted as C)	C (A compound having a KD ratio of 0.1 or more and less than 3 is denoted as C)
CCCN1C(=O)[C@@H]2CCN2C(=O)[C@@H]2CCCCN2C(=O)[C@H]([C@@H](C)CC)NC(=O)[C@H](CC(C)C)N(C)C(=O)C[C@@H](C(=O)N2CCOCC2)N(C)C(=O)[C@H](C2CCCC2)N(C)C(=O)C2(CCCC2)NC(=O)[C@@H]2CCCN2C(=O)[C@H](CCc2ccc(C(F)(F)F)c(Cl)c2)NC(=O)CN(C)C(=O)[C@@H]1Cc1ccc(C(F)(F)F)cc1 [PP0077] ([NMeL]I[Pip][Aze][NPrPhe(4-CF3)][Sar][hPhe(3-Cl-4-CF3)]P[Ac5c][NMeGly(cPent)][NMeD]-Morpholide; lactam N-11)	C (A compound having a KD ratio of 0.1 or more and less than 3 is denoted as C)	B (a compound having 3 or more and less than 10 is denoted as B)
CCCN1C(=O)[C@@H]2CCN2C(=O)[C@H](C)NC(=O)[C@H]([C@@H](C)CC)NC(=O)[C@H](CC(C)C)N(C)C(=O)C[C@@H](C(=O)N2CCOCC2)N(C)C(=O)[C@H](C2CCCC2)N(C)C(=O)C2(CCCC2)NC(=O)[C@@H]2CCCN2C(=O)[C@H](CCc2ccc(C(F)(F)F)c(Cl)c2)NC(=O)CN(C)C(=O)[C@@H]1Cc1ccc(C(F)(F)F)cc1 [PP0078] ([NMeL]IA[Aze][NPrPhe(4-CF3)][Sar][hPhe(3-Cl-4-CF3)]P[Ac5c][NMeGly(cPent)][NMeD]-Morpholide; lactam N-11)	C (A compound having a KD ratio of 0.1 or more and less than 3 is denoted as C)	B (a compound having 3 or more and less than 10 is denoted as B)
CC[C@H](C)[C@@H]1NC(=O)[C@H](CC(C)C)N(C)C(=O)C[C@@H](C(=O)N2CCOCC2)N(C)C(=O)[C@H](C2CCCC2)N(C)C(=O)C2(CCCC2)NC(=O)[C@@H]2CCCN2C(=O)[C@H](CCc2ccc(C(F)(F)F)c(Cl)c2)NC(=O)CN(C)C(=O)[C@H](Cc2ccc(C)cc2)N(CC2CCCC2)C(=O)[C@@H]2CCN2C(=O)[C@H](C)N(C)C1=O [PP0084] ([NMeL]I[NMeA][Aze][X29][Sar][hPhe(3-Cl-4-CF3)]P[Ac5c][NMeGly(cPent)][NMeD]-Morpholide; lactam N-11)	C (A compound having a KD ratio of 0.1 or more and less than 3 is denoted as C)	B (a compound having 3 or more and less than 10 is denoted as B)
CC[C@H](C)[C@@H]1NC(=O)[C@H](CC(C)C)N(C)C(=O)C[C@@H](C(=O)N2CCOCC2)N(C)C(=O)[C@H](C2CCCC2)N(C)C(=O)C2(CCCC2)NC(=O)[C@@H]2CCCN2C(=O)[C@H](CCc2ccc(C(F)(F)F)c(Cl)c2)NC(=O)CN(C)C(=O)[C@H](Cc2ccc(C)cc2)N(CC2CCCCC2)C(=O)[C@@H]2CCN2C(=O)[C@H](C)N(C)C1=O [PP0085] ([NMeL]I[NMeA][Aze][X27][Sar][hPhe(3-Cl-4-CF3)]P[Ac5c][NMeGly(cPent)][NMeD]-Morpholide; lactam N-11)	C (A compound having a KD ratio of 0.1 or more and less than 3 is denoted as C)	C (A compound having a KD ratio of 0.1 or more and less than 3 is denoted as C)
CC[C@H](C)[C@@H]1NC(=O)[C@H](CC(C)C)N(C)C(=O)C[C@@H](C(=O)N2CCOCC2)N(C)C(=O)[C@H](C2CCCC2)N(C)C(=O)C2(CCCC2)NC(=O)[C@@H]2CCCN2C(=O)[C@H](CCc2ccc(C(F)(F)F)c(Cl)c2)NC(=O)CN(C)C(=O)[C@H](Cc2ccc(C)cc2)N(CCC(C)C)C(=O)[C@@H]2CCN2C(=O)[C@H](C)N(C)C1=O [PP0086] ([NMeL]I[NMeA][Aze][X34][Sar][hPhe(3-Cl-4-CF3)]P[Ac5c][NMeGly(cPent)][NMeD]-Morpholide; lactam N-11)	C (A compound having a KD ratio of 0.1 or more and less than 3 is denoted as C)	B (a compound having 3 or more and less than 10 is denoted as B)
CC[C@H](C)[C@@H]1NC(=O)[C@H](CC(C)C)N(C)C(=O)C[C@@H](C(=O)N2CCOCC2)N(C)C(=O)[C@H](C2CCCC2)N(C)C(=O)C2(CCCC2)NC(=O)[C@@H]2CCCN2C(=O)[C@H](CCc2ccc(C(F)(F)F)c(Cl)c2)NC(=O)CN(C)C(=O)[C@H](Cc2ccc(C)cc2)N(CCC(C)(C)C)C(=O)[C@@H]2CCN2C(=O)[C@H](C)N(C)C1=O [PP0087] ([NMeL]I[NMeA][Aze][X35][Sar][hPhe(3-Cl-4-CF3)]P[Ac5c][NMeGly(cPent)][NMeD]-Morpholide; lactam N-11)	C (A compound having a KD ratio of 0.1 or more and less than 3 is denoted as C)	C (A compound having a KD ratio of 0.1 or more and less than 3 is denoted as C)
C=CCCN1C(=O)[C@@H]2CCN2C(=O)[C@H](C)N(C)C(=O)[C@H]([C@@H](C)CC)NC(=O)[C@H](CC(C)C)N(C)C(=O)C[C@@H](C(=O)N2CCOCC2)N(C)C(=O)[C@H](C2CCCC2)N(C)C(=O)C2(CCCC2)NC(=O)[C@@H]2CCCN2C(=O)[C@H](CCc2ccc(C(F)(F)F)c(Cl)c2)NC(=O)CN(C)C(=O)[C@@H]1Cc1ccc(C)cc1 [PP0089] ([NMeL]I[NMeA][Aze][X48][Sar][hPhe(3-Cl-4-CF3)]P[Ac5c][NMeGly(cPent)][NMeD]-Morpholide; lactam N-11)	C (A compound having a KD ratio of 0.1 or more and less than 3 is denoted as C)	B (a compound having 3 or more and less than 10 is denoted as B)

From patent US20250230193A1, “CYCLIC COMPOUND HAVING SELECTIVE KRAS INHIBITORY EFFECT ON HRAS AND NRAS” (CHUGAI SEIYAKU KABUSHIKI KAISHA, priority 2022, published 2025)
